# Experimental data reported in the SangsterLogP compilation.
row,logP,SMILES
1,1.59,N#Cc1ccccc1O
2,1.73,CC(=O)Nc1ccccc1C(=O)O
3,2.92,COc1ccccc1Oc1ccccc1
4,0.67,CS(=O)(=O)c1ccc(C(=O)O)cc1
5,1.42,COc1ccc(N(C)C)cc1
6,0.72,CC(=O)Nc1ccccc1O
7,2.8,Cc1cccc(N(C)C)c1
8,1.2,CSc1ccccc1N
9,0.73,CC(=O)Nc1cccc(O)c1
10,2.45,O=C(O)Cc1ccc(C(F)(F)F)cc1
11,1.78,CSc1ccc(O)cc1
12,1.63,COc1ccccc1N(C)C
13,2.74,CSc1ccc(C(=O)O)cc1
14,0.79,O=Cc1ccc(OCC(=O)O)cc1
15,3.21,O=C(O)c1ccc(Oc2ccccc2)cc1
16,2.26,Cc1ccccc1C=O
17,1.45,CSc1cccc(N)c1
18,2.09,CC(=O)Oc1cccc(C)c1
19,2.11,CC(=O)Oc1ccc(C)cc1
20,-0.12,CS(=O)(=O)c1ccc(N)cc1
21,2.46,Nc1ccccc1Oc1ccccc1

row,SMILES,logP
1,Oc1cccc(-c2ccccc2)c1,3.23
2,Nc1ccc(Oc2ccccc2)cc1,2.36
